One assay addresses Human alpha-thrombin (Homo sapiens (Human), UniProt P00734). The assay is described as follows: Thrombin counterscreen for selectivity, fluorogenic substrate cleavage. The conditions noted are these: 10 min pre-incubation, Boc-Val-Pro-Arg-AMC 20 μM. The class given is biochemical. The protocol: Counterscreens for Selectivity:
Thrombin. In a 96-well white opaque plate, 80 μl of assay buffer was added to each well. Test compounds were added, and serially diluted as above, to generate a concentration range of approximately 1-100 μM. Human alpha-thrombin (Enzyme Research Labs) was diluted in assay buffer to a final concentration of 12.5 nM. 80 μl of this enzyme solution was added to the assay wells. The enzyme/compound mixtures were incubated for 10 minutes at room temperature. Fluorogenic substrate (Boc-Val-Pro-Arg-7-amido-4-methylcoumarin; Sigma) was added to assay wells at a final concentration of 20 μM. The assay plate was spun for 1 minute at 1500 g and then read at 37° C. in a SpectraMax M2 plate reader (λex=380 nm and λem=460 nm). Activity was quantified as the rate of change in fluorescence, which corresponds to the rate of substrate cleavage. IC50 values were determined as the concentration of inhibitor that produced 50% of the rate of change of control wells without any inhibitor. For compounds with activity <1 μM, the assay was repeated with a lower concentration range, typically from 10-1000 nM.
On the technique in general: A counterscreen serves to expose hits that act by an unwanted route or on another target.

A further assay addresses Human FXIIa (Homo sapiens (Human), UniProt P00748). The assay is described as follows: Factor XIIa (FXIIa) inhibitory activity, chromogenic substrate (Pefachrome XIIa) cleavage. The class given is biochemical. The conditions noted are these: 10 min pre-incubation, Pefachrome XIIa 400 μM.

Some results are limits rather than exact numbers.

Chain of Human FXIIa (P00748 373-615): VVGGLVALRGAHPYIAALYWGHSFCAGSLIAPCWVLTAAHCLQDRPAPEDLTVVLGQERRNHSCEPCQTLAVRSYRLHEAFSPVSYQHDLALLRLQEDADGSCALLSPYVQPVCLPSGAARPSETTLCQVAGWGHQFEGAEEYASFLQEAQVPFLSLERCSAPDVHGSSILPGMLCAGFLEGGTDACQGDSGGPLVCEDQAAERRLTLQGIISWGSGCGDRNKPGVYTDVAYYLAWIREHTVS
Chain of Human FXIIa (P00748 20-372 partner): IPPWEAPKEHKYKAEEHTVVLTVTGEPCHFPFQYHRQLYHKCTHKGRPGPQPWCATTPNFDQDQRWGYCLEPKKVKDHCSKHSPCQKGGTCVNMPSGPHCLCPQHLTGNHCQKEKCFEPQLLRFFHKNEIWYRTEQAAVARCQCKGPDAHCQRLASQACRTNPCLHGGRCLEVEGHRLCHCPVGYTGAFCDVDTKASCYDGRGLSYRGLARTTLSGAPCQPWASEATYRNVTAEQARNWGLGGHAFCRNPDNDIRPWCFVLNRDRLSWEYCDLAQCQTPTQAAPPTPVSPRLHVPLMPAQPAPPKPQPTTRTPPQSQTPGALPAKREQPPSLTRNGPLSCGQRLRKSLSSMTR

For the molecule `CS(=O)(=O)N1CCc2c(nn(C(=O)C3CCNc4ccc(F)cc43)c2N)C1` (single isomer, unassigned) [Example 16, (3-amino-6-(methylsulfonyl)-4,5,6,7-tetrahydropyrazolo[3,4-c]pyridin-2-yl)(6-fluoro-1,2,3,4-tetrahydroquinolin-4-yl)methanone], the IC50 was 20 µM at Human alpha-thrombin and 0.06 µM at Human FXIIa.
For `CS(=O)(=O)N1CCc2c(nn(C(=O)C3CCNc4ccc(F)cc43)c2N)C1` (single isomer, unassigned) [Example 18, (S*)-(3-amino-6-(methylsulfonyl)-4,5,6,7-tetrahydropyrazolo[3,4-c]pyridin-2-yl)(6-fluoro-1,2,3,4-tetrahydroquinolin-4-yl)methanone] the same measures were 12.5 µM and 0.03 µM.
As to `Cc1cc(F)cc2c1NCCC2C(=O)n1nc2c(c1N)CCN(S(C)(=O)=O)C2` (single isomer, unassigned) [Example 53, (S*)-(3-amino-6-(methylsulfonyl)-4,5,6,7-tetrahydropyrazolo[3,4-c]pyridin-2-yl)(6-fluoro-8-methyl-1,2,3,4-tetrahydroquinolin-4-yl)methanone], the values for the IC50 at Human alpha-thrombin and at Human FXIIa were 9 µM and 0.01 µM, respectively.
For `CS(=O)(=O)N1CCc2c(nn(C(=O)C3CCNc4c(Cl)cccc43)c2N)C1` (single isomer, unassigned) [Example 60, (S*)-(3-amino-6-(methylsulfonyl)-4,5,6,7-tetrahydropyrazolo[3,4-c]pyridin-2-yl)(8-chloro-1,2,3,4-tetrahydroquinolin-4-yl)methanone] the same measures were above 60 µM and 0.03 µM.
For `COc1cccc2c1NCCC2C(=O)n1nc2c(c1N)CCN(S(C)(=O)=O)C2` (single isomer, unassigned) [Example 63, (S*)-(3-amino-6-(methylsulfonyl)-4,5,6,7-tetrahydropyrazolo[3,4-c]pyridin-2-yl)(8-methoxy-1,2,3,4-tetrahydroquinolin-4-yl)methanone], in that order: 35 µM and 0.14 µM.
Regarding `CCc1cc(C)c2c(c1)C(C(=O)n1nc3c(c1N)CCN(S(C)(=O)=O)C3)CCN2` (single isomer, unassigned) [Example 69, (3-amino-6-(methylsulfonyl)-4,5,6,7-tetrahydropyrazolo[3,4-c]pyridin-2-yl)((S*)-6-ethyl-8-methyl-1,2,3,4-tetrahydroquinolin-4-yl)methanone], the values for the IC50 at Human alpha-thrombin and on Human FXIIa were 40 µM and 0.01 µM, respectively.
`Cc1cc(F)cc2c1NCCC2C(=O)n1nc2c(c1N)CCOC2` (single isomer, unassigned) [Example 76, (S*)-(3-amino-4,5-dihydropyrano[3,4-c]pyrazol-2(7H)-yl)(6-fluoro-8-methyl-1,2,3,4-tetrahydroquinolin-4-yl)methanone]: the IC50 at Human alpha-thrombin was above 100 µM; against Human FXIIa, 0.05 µM.
On to `CS(=O)(=O)N1CCc2c(nn(C(=O)[C@H]3CCCc4[nH]c(Cl)cc43)c2N)C1` (single isomer, unassigned) [Example 131, (S*)-(3-amino-6-(methylsulfonyl)-4,5,6,7-tetrahydro-pyrazolo[3,4-c]pyridin-2-yl)(2-chloro-4,5,6,7-tetrahydro-1H-indol-4-yl)methanone], for which the IC50 stood at 1.5 µM on Human alpha-thrombin and 0.03 µM against Human FXIIa.
For `CS(=O)(=O)N1CCc2c(nn(C(=O)[C@H]3CCNc4ccccc43)c2N)C1` (single isomer, unassigned) [Example 135, (S*)-(3-amino-6-(methylsulfonyl)-4,5,6,7-tetrahydro-pyrazolo[3,4-c]pyridin-2-yl)(1,2,3,4-tetrahydro-quinolin-4-yl)methanone], in that order: 28 µM and 0.08 µM.
`Nc1c2c(nn1C(=O)[C@H]1CCNc3ccc(F)cc31)CNCC2` (single isomer, unassigned) [Example 146, (S*)-(3-amino-4,5,6,7-tetrahydro-pyrazolo[3,4-c]pyridin-2-yl)(6-fluoro-1,2,3,4-tetrahydro-quinolin-4-yl)methanone]: the IC50 at Human alpha-thrombin is above 90 µM; at Human FXIIa it was 0.07 µM.
For `CCN1CCc2c(nn(C(=O)[C@H]3CCNc4ccc(F)cc43)c2N)C1` (single isomer, unassigned) [Example 165, (S*)-(3-amino-6-ethyl-4,5,6,7-tetrahydro-pyrazolo[3,4-c]pyridin-2-yl)(6-fluoro-1,2,3,4-tetrahydro-quinolin-4-yl)methanone] the same measures were above 75 µM and 0.03 µM.
Regarding `CCN1CCc2c(nn(C(=O)[C@H]3CCNc4c(C)cc(F)cc43)c2N)C1` (single isomer, unassigned) [Example 170, (S*)-(3-amino-6-ethyl-4,5,6,7-tetrahydro-pyrazolo[3,4-c]pyridin-2-yl)(6-fluoro-8-methyl-1,2,3,4-tetrahydro-quinolin-4-yl)methanone], the IC50 was above 90 µM on Human alpha-thrombin and 0.01 µM at Human FXIIa.
Regarding `CCN1CCc2c(nn(C(=O)[C@H]3CCNc4c(C)cccc43)c2N)C1` (single isomer, unassigned) [Example 173, (S*)-(3-amino-6-ethyl-4,5,6,7-tetrahydro-pyrazolo[3,4-c]pyridin-2-yl)(8-methyl-1,2,3,4-tetrahydroquinolin-4-yl)methanone], the half-inhibitory concentration (IC50) is above 100 µM at Human alpha-thrombin and 0.02 µM against Human FXIIa.
For `Nc1c2c(nn1C(=O)C1CCNc3ccc(F)cc31)CN(S(=O)(=O)c1ccncc1)CC2` (stereo not drawn) [Example 155, (3-amino-6-(pyridin-4-ylsulfonyl)-4,5,6,7-tetrahydro-pyrazolo[3,4-c]pyridin-2-yl)(6-fluoro-1,2,3,4-tetrahydro-quinolin-4-yl)methanone], the IC50 against Human FXIIa is 1.2 µM.
The same measure, in the same setting: next, `Nc1nn(C(=O)C2CCNc3ccc(F)cc32)c2c1CCN(S(=O)(=O)c1ccncc1)C2` (stereo not drawn) [Example 156, (3-amino-6-(pyridin-4-ylsulfonyl)-4,5,6,7-tetrahydro-pyrazolo[3,4-c]pyridin-1-yl)(6-fluoro-1,2,3,4-tetrahydro-quinolin-4-yl)methanone]: 14 µM; `Nc1nn(C(=O)C2CCNc3ccc(F)cc32)c2c1CCN(S(=O)(=O)c1cccnc1)C2` (stereo not drawn) [Example 158, (3-amino-6-(pyridin-3-ylsulfonyl)-4,5,6,7-tetrahydro-pyrazolo[3,4-c]pyridin-1-yl)(6-fluoro-1,2,3,4-tetrahydro-quinolin-4-yl)methanone]: 37 µM.
The same measure, in the same setting: next, `Nc1nn(C(=O)C2CCNc3ccc(F)cc32)c2c1CCN(S(=O)(=O)C(F)F)C2` (stereo not drawn) [Example 160, (3-amino-6-(difluoromethyl-sulfonyl)-4,5,6,7-tetrahydro-pyrazolo[3,4-c]pyridin-1-yl)(6-fluoro-1,2,3,4-tetrahydro-quinolin-4-yl)methanone]: 16 µM.
For the molecule `CCN1CCc2c(N)nn(C(=O)C3CCNc4ccc(Cl)cc43)c2C1` (stereo not drawn) [Example 162, (3-amino-6-ethyl-4,5,6,7-tetrahydro-pyrazolo[3,4-c]pyridin-1-yl)(6-chloro-1,2,3,4-tetrahydro-quinolin-4-yl)methanone], the IC50 at Human FXIIa came out at 21 µM.
Same read-out and setting: under `CCN1CCc2c(N)nn(C(=O)C3CCNc4ccc(F)cc43)c2C1` (stereo not drawn) [Example 164, (3-amino-6-ethyl-4,5,6,7-tetrahydro-pyrazolo[3,4-c]pyridin-1-yl)(6-fluoro-1,2,3,4-tetrahydro-quinolin-4-yl)methanone] stands 12 µM.
On the same count and under the same terms, under `CCN1CCc2c(N)nn(C(=O)C3CCNc4c(C)cc(F)cc43)c2C1` (stereo not drawn) [Example 172, (3-amino-6-ethyl-4,5,6,7-tetrahydro-pyrazolo[3,4-c]pyridin-1-yl)(6-fluoro-8-methyl-1,2,3,4-tetrahydro-quinolin-4-yl)methanone] stands 4.5 µM.
Same read-out and setting: next, `CCN1CCc2c(N)nn(C(=O)C3CCNc4c(C)cccc43)c2C1` (stereo not drawn) [Example 175, (3-amino-6-ethyl-4,5,6,7-tetrahydro-pyrazolo[3,4-c]pyridin-1-yl)(8-methyl-1,2,3,4-tetrahydro-quinolin-4-yl)methanone]: 50 µM; `Cc1cccc2c1NCCC2C(=O)n1nc(N)c2c1CNCC2` (stereo not drawn) [Example 178, (3-amino-4,5,6,7-tetrahydro-pyrazolo[3,4-c]pyridin-1-yl)(8-methyl-1,2,3,4-tetrahydro-quinolin-4-yl)methanone]: 60 µM; `Cc1cccc2c1NCCC2C(=O)n1nc(N)c2c1CN(S(=O)(=O)C1CCC1)CC2` (stereo not drawn) [Example 184]: 11 µM.
`Cc1cccc2c1NCCC2C(=O)n1nc(N)c2c1CN(S(=O)(=O)C1COC1)CC2` (stereo not drawn) [Example 187, (3-amino-6-(oxetan-3-ylsulfonyl)-4,5,6,7-tetrahydro-pyrazolo[3,4-c]pyridin-1-yl)(8-methyl-1,2,3,4-tetrahydro-quinolin-4-yl)methanone] gave an IC50 against Human FXIIa of 35 µM.
Same read-out and setting: next, `Cc1cccc2c1NCCC2C(=O)n1nc(N)c2c1CCOC2` (stereo not drawn) [Example 189, (3-amino-6,7-dihydropyrano[4,3-c]pyrazol-1(4H)-yl)(8-methyl-1,2,3,4-tetrahydro-quinolin-4-yl)methanone]: 40 µM; `Cc1cccc2c1NCCC2C(=O)n1nc(N)c2c1COCC2` (stereo not drawn) [Example 200, (3-amino-4,5-dihydropyrano[3,4-c]pyrazol-1(7H)-yl)(8-methyl-1,2,3,4-tetrahydro-quinolin-4-yl)methanone]: above 100 µM.

The term IC50 denotes the point on the concentration scale where inhibition reaches its midpoint.

The values are drawn from patent US11312723B2, “Pyranopyrazole and pyrazolopyridine immunomodulators for treatment of autoimmune diseases” (The Rockefeller University, priority 2017, dated 2022).
